Experimental findings from US20240182406A1, “COMPOUNDS AS SOLUBLE EPOXIDE HYDROLASE INHIBITORS” (UNIVERSITAT DE BARCELONA, priority 2021, published 2024) are described below.

Marks after values point to notes of the source that are not given here.

The target in one data set is human sEH (Homo sapiens (Human), UniProt P34913). Kind of data set: In vitro determination of sEH inhibition activity (fluorescent assay, CMNPC substrate). Conditions: purified recombinant human sEH, CMNPC 5 μM, 30° C., mean of triplicate. The class given is biochemical. As for the experimental part: Cyano(6-methoxynaphthalen-2-yl)methyl 2-(3-phenyloxiran-2-yl)methylcarbonate (CMNPC); cf. Morisseau, C.; Hammock, B. D. Measurement of soluble epoxide hydrolase (sEH) activity. Curr. Protoc. Toxicol.
The fluorescent assay was used with purified recombinant human or mouse sEH proteins. The enzymes were incubated at 30° C. with the inhibitors ([I]final=0.4-100,000 nM) for 5 min in 100 mM sodium phosphate buffer (200 μL, pH 7.4) containing 0.1 mg/mL of BSA and 1% of DMSO. The substrate (CMNPC) was then added ([S]final=5 μM). […] Results were obtained by regression analysis from a linear region of the curve.

Data set [1] in a line: In vitro determination of microsomal stability. The class given is in vitro ADME. To be noted: human microsomes, 37° C., samples at 0-60 min. As for the experimental part:
The human recombinant microsomes employed were purchased from Tebu-Xenotech. […] Samples (75 μL) were taken from each well at 0, 10, 20, 40 and 60 min and transferred to a plate containing 4° C. 75 μL acetonitrile and 30 μL of 0.5% formic acid in water were added for improving the chromatographic conditions. The plate was centrifuged (46000 g, 30 min) and supernatants were taken and analyzed in a UPLC-MS/MS (Xevo-TQD, Waters) by employing a BEH C18 column and an isocratic gradient of 0.1% formic acid in water:0.1% formic acid acetonitrile (60:40). The metabolic stability of the compounds was calculated from the logarithm of the remaining compounds at each of the time points studied.

The next data set relates to CD1 mice. Kind of data set: Seizure assay (pentylenetetrazole, PTZ test). Type of data set: in vivo, mouse. Conditions: 5 mg/kg by gavage 1 h prior to PTZ 85 mg/Kg s.c., monitored 30 min. The method, then: Test compounds were dissolved in 20% hydroxypropyl-beta-cyclodextrin and concentration was calculated according to the animal weigh to reach the precise dose. Animals were housed in standard care facilities with a 12 hours light-dark cycle with free access to water and food.
To investigate the ability of compounds to cross the blood-brain barrier (BBB), a standard acute test involving the administration of pro-convulsant pentylenetetrazole (PTZ) was employed [Inceoglu et al, PLoS ONE, 2013, 8(12), e80922; WO 2015/148954 A1]. In the test, PTZ was administered at 85 mg/Kg by subcutaneous route, time to onset of first clonic seizure, average of clonic seizures, tonic seizure latency and lethality were monitored for 30 min. Vehicles or compounds were administered by gavage at 5 mg/kg 1 h prior to pro-convulsant.

human sEH, sequence (P34913 whole entry): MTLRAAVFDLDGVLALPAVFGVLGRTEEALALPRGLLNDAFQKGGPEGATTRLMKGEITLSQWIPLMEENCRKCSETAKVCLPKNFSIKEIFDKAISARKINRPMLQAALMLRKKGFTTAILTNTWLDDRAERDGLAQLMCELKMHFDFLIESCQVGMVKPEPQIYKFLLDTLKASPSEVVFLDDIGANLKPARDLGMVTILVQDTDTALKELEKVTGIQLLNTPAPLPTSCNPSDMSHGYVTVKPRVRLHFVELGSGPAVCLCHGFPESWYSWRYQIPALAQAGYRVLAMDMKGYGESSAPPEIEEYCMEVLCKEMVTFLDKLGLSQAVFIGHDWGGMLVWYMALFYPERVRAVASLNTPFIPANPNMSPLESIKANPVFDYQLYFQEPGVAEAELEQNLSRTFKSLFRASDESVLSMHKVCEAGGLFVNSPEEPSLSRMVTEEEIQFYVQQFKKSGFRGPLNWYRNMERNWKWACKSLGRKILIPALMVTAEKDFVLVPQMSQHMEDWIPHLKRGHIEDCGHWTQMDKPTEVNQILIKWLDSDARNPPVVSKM

By IC50 is commonly meant the midpoint of a concentration-inhibition curve. Turning to `O=C(NC12CC3CC(F)(CC(C1)c1ccccc13)C2)N[C@H]1CC[C@H](Oc2ccc(C(=O)O)cc2)CC1` [Example 1, 4-[((1r,4r)-4-(3-(9-fluoro-5,6,8,9,10,11-hexahydro-7H-5,9:7,11-dimethanobenzo[9]annulen-7-yl)ureido)cyclohexyl)oxy]benzoic acid], the IC50 on human sEH turned out to be 0.5 nM. Moreover, the “Microsomal stability (% remanent)” value in data set [1] amounted to 77%.
Take `COc1cc2c(cc1OC)C1CC3(F)CC2CC(NC(=O)NC2CCN(C(=O)C4CCOCC4)CC2)(C1)C3` [Example 5, 1-(9-fluoro-2,3-dimethoxy-5,6,8,9,10,11-hexahydro-7H-5,9:7,11-dimethanobenzo[9]annulen-7-yl)-3-(1-(tetrahydro-2H-pyran-4-carbonyl)piperidin-4-yl)urea]: at human sEH, the IC50 amounted to 0.6 nM. In addition, in data set [1], the “Microsomal stability (% remanent)” value was determined as 100%.
In general, melting point refers to the temperature, or range, at which the solid turns liquid. In turn, `COc1cc2c(cc1OC)C1CC3(Cl)CC2CC(NC(=O)NC2CCN(C(=O)C4CCOCC4)CC2)(C1)C3` [Example 6, 1-(9-chloro-2,3-dimethoxy-5,6,8,9,10,11-hexahydro-7H-5,9:7,11-dimethanobenzo[9]annulen-7-yl)-3-(1-(tetrahydro-2H-pyran-4-carbonyl)piperidin-4-yl)urea] gave a melting point of 147 to 150 °C. Also, at human sEH, the IC50 was found to be 0.4 nM. In data set [1], the “Microsomal stability (% remanent)” value was 42%.
Consider `O=C(NC1CCN(c2ccc(C(=O)O)cc2)CC1)NC12CC3CC(F)(CC(C1)c1ccccc13)C2` [Example 13, 4-(4-(3-(9-fluoro-5,6,8,9,10,11-hexahydro-7H-5,9:7,11-dimethanobenzo[9]annulen-7-yl)ureido)piperidin-1-yl)benzoic acid], for which the melting point fell in the range of 267 to 268 °C. For the same compound, the IC50 at human sEH was determined as 0.5 nM. For the same compound, the “Microsomal stability (% remanent)” value in data set [1] is reported as 100%.
For `O=C(NC1CCN(c2ccc(C(=O)O)cc2)CC1)NC12CC3CC(Cl)(CC(C1)c1ccccc13)C2` [Example 14, 4-(4-(3-(9-chloro-5,6,8,9,10,11-hexahydro-7H-5,9:7,11-dimethanobenzo[9]annulen-7-yl)ureido)piperidin-1-yl)benzoic acid], in that order: 226 to 227 °C, 0.4 nM and 99%.
For `COC(=O)c1ccc(C(=O)N2CCC(NC(=O)NC34CC5CC(Cl)(CC(C3)c3ccccc35)C4)CC2)cc1` [Example 15, methyl 4-(4-(3-(9-chloro-5,6,8,9,10,11-hexahydro-7H-5,9:7,11-dimethanobenzo[9]annulen-7-yl)ureido)piperidine-1-carbonyl)benzoate], the melting point lay within 128 to 129 °C.
Turning to `O=C(NC1CCN(C(=O)c2ccc(C(=O)O)cc2)CC1)NC12CC3CC(Cl)(CC(C1)c1ccccc13)C2` [Example 16, 4-(4-(3-(9-chloro-5,6,8,9,10,11-hexahydro-7H-5,9:7,11-dimethanobenzo[9]annulen-7-yl)ureido)piperidine-1-carbonyl)benzoic acid], the melting point was 200 °C (dec.). Moreover, on human sEH, the IC50 was determined as 0.4 nM. In addition, the “Microsomal stability (% remanent)” value in data set [1] turned out to be 88%.
Take `CC(=O)N1CCC(NC(=O)NC23CC4CC(C)(CC(C2)c2ccccc24)C3)CC1` [Example C1, 1-(1-acetylpiperidin-4-yl)-3-(9-methyl-5,6,8,9,10,11-hexahydro-7H-5,9:7,11-dimethanobenzo[9]annulen-7-yl)urea]: the “Microsomal stability (% remanent)” value in data set [1] is on record as 1%.
Take `CC12CC3CC(NC(=O)NC4C[C@H]5CC[C@@H](C4)N5Cc4ccccc4)(CC(C1)c1ccccc13)C2` (stereo partly drawn) [Example C2, 1-((1R,3s,5S)-8-benzyl-8-azabicyclo[3.2.1]octan-3-yl)-3-(9-methyl-5,6,8,9,10,11-hexahydro-7H-5,9:7,11-dimethanobenzo[9]annulen-7-yl)urea]: at human sEH, the IC50 came out at 4.7 nM. Besides, the “Microsomal stability (% remanent)” value in data set [1] turned out to be 0.1%.
For `CC12CC3CC(NC(=O)Nc4ccc(F)c(F)c4F)(CC(C1)c1ccccc13)C2` [Example C4, 1-(9-methyl-6,7,8,9,10,11-hexahydro-5H-5,9:7,11-dimethanobenzo[9]annulen-7-yl)-3-(2,3,4-trifluorophenyl)urea], in that order: 1.1 nM and 7%.
Taken in the same sequence, the figures for `CC12CC3CC(NC(=O)NC4CCN(Cc5ccccc5)CC4)(CC(C1)c1ccccc13)C2` [Example C5, 1-(1-benzylpiperidin-4-yl)-3-(9-methyl-5,6,8,9,10,11-hexahydro-7H-5,9:7,11-dimethanobenzo[9]annulen-7-yl)urea] were 1.5 nM and 0.1%.
For `CC(=O)N1CCC(NC(=O)NC23CC4CC(C)(CC(C2)c2cc(F)ccc24)C3)CC1` (centres unmarked) [Example C8, 1-(1-acetylpiperidin-4-yl)-3-(2-fluoro-9-methyl-5,6,8,9,10,11-hexahydro-7H-5,9:7,11-dimethanobenzo[9]annulen-7-yl)urea], in that order: 0.9 nM and 22%.
Take `CC(=O)N1CCC(NC(=O)NC23CC4CC(C)(CC(C2)c2c(F)cccc24)C3)CC1` (centres unmarked) [Example C9, 1-(1-acetylpiperidin-4-yl)-3-(1-fluoro-9-methyl-5,6,8,9,10,11-hexahydro-7H-5,9:7,11-dimethanobenzo[9]annulen-7-yl)urea]: on human sEH, the IC50 came out at 0.9 nM. Also, the “Microsomal stability (% remanent)” value in data set [1] is given as 16%.
Taken in the same sequence, the figures for `COc1ccc2c(c1)C1CC3(C)CC2CC(NC(=O)NC2CCN(C(C)=O)CC2)(C1)C3` (centres unmarked) [Example C10, 1-(1-acetylpiperidin-4-yl)-3-(2-methoxy-9-methyl-5,6,8,9,10,11-hexahydro-7H-5,9:7,11-dimethanobenzo[9]annulen-7-yl)urea] were 1.2 nM and 33%.
Taken in the same sequence, the figures for `CC(=O)c1ccc(N2CCC(NC(=O)NC34CC5CC(C)(CC(C3)c3ccccc35)C4)CC2)cc1` [Example C12, 1-(1-(4-acetylphenyl)piperidin-4-yl)-3-(9-methyl-5,6,8,9,10,11-hexahydro-7H-5,9:7,11-dimethanobenzo[9]annulen-7-yl)urea] were 2.9 nM and 0.7%.
For `CCC(=O)N1CCC(NC(=O)Nc2ccc(OC(F)(F)F)cc2)CC1` [TPPU, N-[1-(1-Oxopropyl)-4-piperidinyl]-N′-[4-(trifluoromethoxy)phenyl]urea, reference compound], in the data set on CD1 mice, the Average clonic seizure is reported as 3.67, the “Mean time to clonic seizure latency” value is 605.33 s and the “Protected from tonic/total (Mortality)” value is 5/6****.
